Here are results for 4 compounds from PMC11785157 (bioRxiv, 2025).

Read-outs that look alike come from different tables or passages of the source.

For data set [1], the system named is CHIKV. In words: CPE reduction assay, CHIKV in Vero cells. In kind it is cell-based, chikungunya virus. The settings on record: read-out: EC50 CHIKV.
Data set [2] deals with Human skin fibroblasts.
In data set [3] the test system is Vero cells.
The test system of data set [4] is CHIKV. The data set can be described thus: CPE reduction assay, CHIKV in skin fibroblasts. Format: cell-based, chikungunya virus. The settings on record: read-out: EC50 CHIKV.
The test system of data set [5] is Huh7 cells.
Data set [6] relates to SINV HRsp. In words: microbe, parasite or virus in culture. In kind it is cell-based, Sindbis virus. The settings on record: for EC50: Sindbis virus, Huh-7, 72 h, read-out: EC50 SINV HRsp.
Data set [7] has as its system VEEV TC83. The data set can be described thus: microbe, parasite or virus in culture. In kind it is cell-based. To be noted: Venezuelan equine encephalitis virus, Vero, 72 h, read-out: EC50 VEEV TC83.
For data set [8], the system named is RRV. In words: microbe, parasite or virus in culture. Format: cell-based. To be noted: Ross River virus, Vero, 72 h, read-out: EC50 RRV.
The test system of data set [9] is SINV AR86. The data set can be described thus: microbe, parasite or virus in culture. In kind it is cell-based, Sindbis virus. To be noted: for EC50: Sindbis virus, Huh-7, 72 h, read-out: EC50 SINV AR86.
Data set [10] concerns alphaviruses. The data set can be described thus: organism not typed. Format: cell-based.
Data set [11] in a line: in vitro. The settings on record: human.
The subject of data set [12] is SFV. The data set can be described thus: microbe, parasite or virus in culture. In kind it is cell-based. The settings on record: Semliki Forest virus, Skin fibroblast, 72 h, read-out: EC50 SFV.
Data set [13] relates to alphaviruses (CHIKV, SFV, SINV-HRsp, SINV-AR86, VEEV TC83 and RRV). The data set can be described thus: microbe, parasite or virus in culture. In kind it is cell-based.
Data set [14] deals with RRV. The data set can be described thus: microbe, parasite or virus in culture. In kind it is cell-based. The settings on record: Ross River virus, Skin fibroblast, 72 h, read-out: EC50 RRV.
Data set [15] relates to SINV HRsp. The data set can be described thus: microbe, parasite or virus in culture. In kind it is cell-based. To be noted: Sindbis virus, Vero, 72 h, read-out: EC50 SINV HRsp.
Data set [16] deals with SINV AR86. The data set can be described thus: microbe, parasite or virus in culture. In kind it is cell-based. To be noted: Sindbis virus, Vero, 72 h, read-out: EC50 SINV AR86.
Data set [17] relates to SFV. In words: microbe, parasite or virus in culture. In kind it is cell-based. The settings on record: Semliki Forest virus, Vero, 72 h, read-out: EC50 SFV.
Data set [18] has as its system VEEV TC83. In words: microbe, parasite or virus in culture. The settings on record: for EC50: Venezuelan equine encephalitis virus, Huh-7, 72 h, read-out: EC50 VEEV TC83. Format: cell-based, Venezuelan Equine Encephalitis virus.
Data set [19] is described as follows: in vitro. The settings on record: human. The source holds these as a separate data set.
The nature of data set [20]: in vitro. The settings on record: African green monkey.
For data set [21], the system named is CHIKV. The data set can be described thus: Infectious virus titres in CHIKV-infected AG129 mice. Format: in vivo.
In data set [22] the test system is CHIKV. The data set can be described thus: Viral RNA levels in CHIKV-infected AG129 mice. Format: in vivo. To be noted: day 3 pi.
For data set [23], the system named is alphaviruses. Format: cell-based.
The conditions of data set [24]: mouse, in vivo.
Data set [25] relates to CHIKV. The data set can be described thus: CHIKV-induced foot swelling in AG129 mice. Format: in vivo.
The test system of data set [26] is CHIKV. To be noted: SOF 20 mg/kg/day; cited from earlier work.
The test system of data set [27] is CHIKV. The settings on record: SOF 40-80 mg/kg/day; cited from earlier work.
The mark [28] stands for this setting: Chikungunya virus, Skin fibroblast, 72 h.
Setting [29] is: MPV 10, 50, 100 mg/kg, day 3 pi.
Where [30] appears, read: combination study, day 2 pi, MPV 10 mg/kg, SOF 80 mg/kg or both (80 + 10 mg/kg), oral.

As a reminder, the EC50 is the concentration at which the effect is half-maximal. With `O=c1nc(NO)ccn1[C@@H]1O[C@H](CO)[C@@H](O)[C@H]1O` [EIDD-1931], the EC50 in data set [1] (Vero cells, 72 h pi, MTS) was 0.7 µM; in [4] (Skin fibroblasts, 72 h pi, MTS), 0.9 µM. Also, the figures for the CC50 in [2], in data set [3] and in data set [5] were 140 ± 19 µM, over 200 µM and 22 ± 11 µM, respectively.
Regarding `NC(=O)c1nc(F)c[nH]c1=O` [FAV, favipiravir], the “antiviral activity against SINV HRsp (in words)” value in data set [6] is given as “active”. The EC50 stood at 22 ± 7 µM in data set [6]; 13 µM in data set [7]; 15 ± 12 µM in data set [8]; 29 ± 18 µM in data set [9]; 35 ± 14 µM in [1] (Chikungunya virus, Vero, 72 h); 382 µM in [12]. The EC50 in [13] (Chikungunya virus, Vero, read-out: EC50 values against all alphaviruses tested) is 13 to 52 µM; in [14], over 200 µM; in data set [4] (setting [28]), 143 ± 5 µM; in data set [15], 52 ± 18 µM; in data set [16] it was 17 ± 2 µM; in [17] it was 33 ± 6 µM. Also, the 50% effective concentration (EC50) in data set [18] was 112 µM. Moreover, the “antiviral activity against SINV AR86 (in words)” value in [9] is reported as “active”. Besides, the “antiviral efficacy (in words)” value in [10] is “only effective against CHIKV”. Moreover, the CC50 in data set [11] was over 500 µM; in data set [19], over 500 µM; in data set [20], 374 ± 17 µM. For the same compound, in [18], the “antiviral activity against VEEV TC83 (in words)” value was “active”.
For the compound `CC(C)C(=O)OC[C@H]1O[C@@H](n2ccc(NO)nc2=O)[C@H](O)[C@@H]1O` [MPV, Molnupiravir], in [21] (setting [29]), the “infectious virus in contralateral ankle (in words)” value is recorded as “dose-dependent decreases”. The “infectious virus in serum (in words)” value in [21] (setting [29]) is on record as “dose-dependent decreases”. The “infectious CHIKV in serum (in words)” value in data set [21] (MPV all doses (10, 50, 100 mg/kg), day 2 pi) is given as “suppressed infectious CHIKV”. For the same compound, in [21] (combination study, day 3 pi, MPV 10 mg/kg, SOF 80 mg/kg or both), the “reduction of infectious virus titres in serum” value turned out to be 1 log10 TCID50/mL. Further, the “infectious virus in left ankle (in words)” value in data set [21] (highest dose of MPV, day 3 pi) is reported as “significant decreases”. Besides, in [22] (MPV 10, 50, 100 mg/kg), the “viral RNA in contralateral ankle (in words)” value was “dose-dependent decreases”. In addition, the “viral RNA in serum (in words)” value in [22] (MPV 10, 50, 100 mg/kg) is listed as “significantly reduced”. In data set [22] (highest dose of MPV), the “viral RNA in left ankle (in words)” value is on record as “significant decreases”. In data set [10], the “EC50 values against all alphaviruses tested (in words)” value is reported as “sub to low single-digit micromolar range”. Also, the “EC50 values, pan-alphavirus (in words)” value in data set [23] is “sub to low single-digit micromolar range”. In addition, the tolerability result in data set [24] was “well-tolerated”. Moreover, the “effect on foot swelling (in words)” value in [25] (MPV 10 mg/kg oral twice daily, dose-response study) is “did not significantly improve swelling”. Further, the “reduction of foot swelling compared to vehicle” value is reported as 22% in data set [25] (MPV 50 mg/kg oral twice daily, day 2 pi); 55% in [25] (MPV 50 mg/kg oral twice daily, day 3 pi); 20% in data set [25] (MPV 100 mg/kg oral twice daily, day 2 pi); 62% in data set [25] (MPV 100 mg/kg oral twice daily, day 3 pi); 19% in data set [25] (setting [30]).
Regarding `CC(C)OC(=O)[C@H](C)N[P@](=O)(OC[C@H]1O[C@@H](n2ccc(=O)[nH]c2=O)[C@](C)(F)[C@@H]1O)Oc1ccccc1` [SOF, Sofosbuvir], the EC50 in data set [6] was 44 ± 3 µM; in data set [7] it was over 100 µM; in data set [8], over 100 µM; in data set [9], over 50 µM; in [10] (Skin fibroblast, read-out: EC50 values against all alphaviruses tested), 12 to 20 µM; in [1] (Chikungunya virus, Vero, 72 h), over 100 µM. In addition, the concentration giving a half-maximal response (EC50) in [12] was 17 ± 3 µM; in [14], 20 ± 7 µM; in data set [4] (setting [28]), 15 ± 3 µM; in [15], over 100 µM; in data set [17], over 100 µM; in data set [18], over 50 µM. Also, in data set [9], the “antiviral activity against SINV AR86 (in words)” value is listed as “did not inhibit”. For the same compound, the foot swelling result in data set [26] was “slightly reduced”. In addition, the “reduction of viral RNA in the joint” value in data set [26] is on record as under 1 log gc/ml. For the same compound, the CC50 in data set [11] turned out to be 280 ± 13 µM; in [19] it was 271 ± 95 µM; in data set [20] it was 350 ± 14 µM. For the same compound, the “effect on foot swelling (in words)” value in data set [25] (SOF 40 and 80 mg/kg oral twice daily, over the course of the infection) is “did not significantly improve”. In addition, the “reduction of foot swelling compared to vehicle” value in [25] (setting [30]) was 25%; in data set [25] (combination study, day 3 pi, MPV 10 mg/kg, SOF 80 mg/kg or both (80 + 10 mg/kg), oral), “no reduction”. Besides, the antiviral activity result in [13] is reported as “no antiviral activity”. Also, the survival entry in [27] is “improved survival”. The “antiviral activity against VEEV TC83 (in words)” value in data set [18] is recorded as “did not inhibit”.
